One data set deals with Culex pipiens molestus. Put plainly: Test Example 10: efficacy test against Culex pipiens molestus. It is filed as in vivo. The following applies: 24 h, 20 first-instar larvae in 100 mL, after one day, read-out: mortality rate against first-instar larvae of Culex pipiens molestus (converted). On the procedure:
(§1) 5 parts of the compound of the present invention, 93.6 parts of dimethylformamide and 1.4 parts of polyoxyethylene alkyl aryl ether were mixed and dissolved to prepare Emulsion (1) including 5% of an active ingredient.
(§2) An insect mortality rate and a controlling rate were calculated by the numerical equations shown below. Insect mortality rate (%)=(Number of dead insects)/(Number of sample insects)×100 Controlling rate={1−(Nt)/(Nc)}×100
Emulsion (1) was diluted with water so that the concentration of the compound of the present invention was 10 ppm, to prepare a chemical liquid for testing. 20 first-instar larvae of Culex pipiens molestus were released in 100 mL of the chemical liquid. After one day, the number of dead insects was counted, and the insect mortality rate was calculated. The test was performed twice.

A further data set concerns Aphis craccivora. Kind of data set: Test Example 4: efficacy test against Aphis craccivora (spray on black-eyed pea plants). In kind it is in vivo. Conditions: in Vigna unguiculata, 96 h, sprayed on black-eyed pea plants with nymphs, 4 days after spraying, read-out: mortality rate against Aphis craccivora. On the procedure: as §1, §2
Black-eyed pea plants were raised in No. 3 pots and the primary leaves were inoculated with nymphs of Aphis craccivora. Emulsion (1) was diluted with water so that the concentration of the compound of the present invention was 125 ppm. Subsequently, the aforementioned diluted liquid was sprayed on the black-eyed pea plants on which the nymphs of Aphis craccivora were parasitic. The aforementioned black-eyed pea plants were then placed in a thermostatic chamber with a temperature of 25° C. and humidity of 60%. Mortality was investigated 4 days after spraying was carried out, and the insect mortality rate of Aphis craccivora was calculated. The test was performed twice.

Another data set concerns Phyllotreta striolata. Put plainly: Test Examples 7 and 14: efficacy test against Phyllotreta striolata (spray on bok-choi seedlings). Conditions: 168 h, sprayed on bok-choi seedlings, adults, 7 days after inoculation, read-out: mortality rate against adult Phyllotreta striolata. It is filed as in vivo. On the procedure: as §1, §2
(§3) Emulsion (1) was diluted with water so that the concentration of the compound of the present invention was 125 ppm, to prepare a diluted liquid for testing. The aforementioned diluted liquid was sprayed on bok-choi seedlings (7th major leaf-development period) planted in No. 3 pots. After the bok-choi seedlings were subjected to air-drying, the seedlings were placed in plastic cups, followed by inoculating 10 adult Phyllotreta striolata. The plastic cups were stored in a thermostatic chamber at a temperature of 25° C. and humidity of 65%. Mortality was investigated 7 days after inoculation, and the insect mortality rate was calculated. The test was performed twice.
as §3, with “8” for “125”

Another data set concerns Plutella xylostella. Kind of data set: Test Example 3: efficacy test against Plutella xylostella (cabbage leaf soak). It is filed as in vivo. Conditions: 72 h, cabbage leaves soaked 30 seconds, second-instar larvae, 3 days after inoculation, read-out: mortality rate against Plutella xylostella. The protocol: as §1, §2
Emulsion (1) was diluted with water so that the concentration of the compound of the present invention was 125 ppm. Cabbage leaves were soaked in the diluted liquid for 30 seconds. Subsequently, the cabbage leaves were put on Petri dishes, followed by inoculating 5 second-instar larvae of Plutella xylostella. The Petri dishes were placed in a thermostatic chamber at a temperature of 25° C. and humidity of 60%. Mortality was investigated 3 days after inoculation, and the insect mortality rate was calculated. The test was performed twice.

The next data set relates to Nilaparvata lugens. Kind of data set: Test Examples 6 and 13: efficacy test against Nilaparvata lugens (rice seedling soak). In kind it is in vivo. The following applies: 168 h, rice seedlings soaked 30 seconds, second-instar larvae, 7 days after inoculation, read-out: mortality rate against Nilaparvata lugens. On the procedure: as §1, §2
Emulsion (1) was diluted with water so that the concentration of the compound of the present invention was 125 ppm. Rice seedlings were soaked in the diluted liquid for 30 seconds, and subjected to air-drying. Subsequently, the rice seedlings were placed in plastic cases, followed by inoculating 5 second-instar larvae of Nilaparvata lugens. The plastic cases were placed in a thermostatic chamber at a temperature of 25° C. and humidity of 65%. Mortality was investigated 7 days after inoculation, and the insect mortality rate was calculated. The test was performed twice.
Emulsion (1) was diluted with water so that the concentration of the compound of the present invention was 8 ppm. Rice seedlings were soaked in the diluted liquid for 30 seconds, and subjected to air-drying. Subsequently, the rice seedlings were placed in plastic cases, followed by inoculating 5 second-instar larvae of Nilaparvata lugens. The plastic cases were placed in a thermostatic chamber at a temperature of 25° C. and humidity of 65%. Mortality was investigated 7 days after inoculation, and the insect mortality rate was calculated. The test was performed twice.

In general, mortality refers to the percentage killed. As to `CCS(=O)(=O)c1cnc(-n2cncn2)nc1-c1ncc(-c2ccc(OC(F)(F)F)cc2)n1C` [Compound No. 3, 5-(ethylsulfonyl)-4-(1-methyl-5-(4-(trifluoromethoxy)phenyl)-1H-imidazol-2-yl)-2-(1H-1,2,4-triazol-1-yl)pyrimidine], the mortality at 10 ppm in the data set on Culex pipiens molestus is 100%.

With `CCS(=O)(=O)c1cnc(-c2ncccn2)nc1-c1ncc(-c2ccc(OC(F)(F)F)cc2)n1C` [Compound No. 7, 5-(ethylsulfonyl)-4-(1-methyl-5-(4-(trifluoromethoxy)phenyl)-1H-imidazol-2-yl)-2,2′-bipyrimidine], the mortality at 125 ppm with Aphis craccivora, in the data set with Phyllotreta striolata, in the data set on Plutella xylostella and with Nilaparvata lugens was no less than 80% in each case. The mortality at 8 ppm with Phyllotreta striolata (8 ppm) and in the data set on Nilaparvata lugens (8 ppm) was no less than 80% throughout.

For the compound `CCS(=O)(=O)c1ccc(-n2cnc(C)n2)nc1-c1ncc(-c2ccc(OC(F)(F)F)cc2)n1C` [Compound No. a-8, 3-(ethylsulfonyl)-6-(3-methyl-1H-1,2,4-triazol-1-yl)-2-(1-methyl-5-(4-(trifluoromethoxy)phenyl)-1H-imidazol-2-yl)pyridine], in the data set with Culex pipiens molestus, the mortality at 10 ppm is 100%. In addition, the mortality at 125 ppm with Aphis craccivora, with Phyllotreta striolata, in the data set with Plutella xylostella and with Nilaparvata lugens was no less than 80% in each case.

The melting point is the temperature, or range, at which the solid turns liquid. Compound `CCS(=O)(=O)c1cc(C(F)(F)F)ccc1-c1nc(Br)c(-n2cc(I)cn2)n1C` [b-1] displayed a melting point of 202 to 204 °C.

For `CCS(=O)(=O)c1cc(C(F)(F)F)ccc1-c1nc(Br)c(-n2cc(C(F)(F)F)cn2)n1C` [b-2], the melting point lay within 176 to 178 °C.

On to `CCSc1cnc(-n2cncn2)nc1-c1ncc(-c2ccc(OC(F)(F)F)cc2)n1C` [compound 2, 5-(ethylthio)-4-(1-methyl-5-(4-(trifluoromethoxy)phenyl)-1H-imidazol-2-yl)-2-(1H-1,2,4-triazol-1-yl)pyrimidine], for which, in the data set on Culex pipiens molestus, the mortality at 10 ppm is 100%.

Source of the values: patent US11180485B2, “Diaryl-azole compound and formulation for controlling harmful organism” (Nippon Soda Co., Ltd., priority 2016, dated 2021).
